Data from ChEMBL document CHEMBL5325398, “Design of Cytochrome P450 1B1 Inhibitors via a Scaffold-Hopping Approach” (J Med Chem, 2023).
pIC50, pKd: −log10 of the molar value.

How the values were obtained:
[1] = molecular target: T1, Cytochrome P450 1A1 (Homo sapiens, UniProt P04798); assay: Inhibition of CYP1A1 (unknown origin) expressed in HEK293-T-REx cells co-expressing POR incubated for 1 hr by resorufin dye based plate reader analysis; type: ADME, cell-based
T1 sequence (P04798 whole entry): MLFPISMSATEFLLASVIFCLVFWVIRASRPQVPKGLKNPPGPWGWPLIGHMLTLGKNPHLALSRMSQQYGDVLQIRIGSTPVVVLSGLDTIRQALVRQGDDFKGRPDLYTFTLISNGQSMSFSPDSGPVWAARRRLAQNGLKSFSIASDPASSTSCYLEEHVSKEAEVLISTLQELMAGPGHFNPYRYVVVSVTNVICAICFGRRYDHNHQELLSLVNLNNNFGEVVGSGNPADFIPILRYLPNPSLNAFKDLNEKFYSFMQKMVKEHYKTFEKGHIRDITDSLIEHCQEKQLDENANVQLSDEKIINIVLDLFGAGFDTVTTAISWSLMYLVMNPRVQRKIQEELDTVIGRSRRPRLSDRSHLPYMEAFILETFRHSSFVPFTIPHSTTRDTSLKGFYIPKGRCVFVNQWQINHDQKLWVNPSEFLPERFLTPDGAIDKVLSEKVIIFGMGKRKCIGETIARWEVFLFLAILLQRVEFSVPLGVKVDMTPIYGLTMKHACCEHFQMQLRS

[2] = Cytotoxicity against HEK293-T-REx cells assessed as reduction in cell viability measured after 72 hrs by resazurin dye based analysis; type: toxicity, Homo sapiens; conditions: for pIC50: hek293-t-rex; for IC50 at 72 h: human, HEK293-T-REx cells
[3] = molecular target: Cytochrome P450 1B1 (Homo sapiens, UniProt Q16678, S127C); assay: Inhibition of CYP1B1 S127C mutant (unknown origin) expressed in HEK293-T-REx cells; type: ADME, cell-based
Sequence of Cytochrome P450 1B1 (Homo sapiens, UniProt Q16678, S127C) (Q16678 whole entry S127C): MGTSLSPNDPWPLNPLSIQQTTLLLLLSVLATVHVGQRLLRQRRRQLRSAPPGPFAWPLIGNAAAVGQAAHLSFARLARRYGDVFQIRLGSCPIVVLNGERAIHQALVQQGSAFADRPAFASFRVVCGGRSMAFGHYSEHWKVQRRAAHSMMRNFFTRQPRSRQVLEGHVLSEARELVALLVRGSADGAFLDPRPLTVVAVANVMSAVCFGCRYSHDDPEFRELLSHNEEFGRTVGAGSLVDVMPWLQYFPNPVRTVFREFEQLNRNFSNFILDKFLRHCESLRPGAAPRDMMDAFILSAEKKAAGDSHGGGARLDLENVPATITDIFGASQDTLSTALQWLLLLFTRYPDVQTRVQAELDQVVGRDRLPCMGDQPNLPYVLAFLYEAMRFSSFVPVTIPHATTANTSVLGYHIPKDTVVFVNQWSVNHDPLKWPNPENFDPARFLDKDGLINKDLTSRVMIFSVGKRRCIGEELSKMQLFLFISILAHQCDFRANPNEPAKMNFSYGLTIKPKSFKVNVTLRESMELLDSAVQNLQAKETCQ

[4] = molecular target: Cytochrome P450 1B1 (Homo sapiens, UniProt Q16678, T334V); assay: Inhibition of CYP1B1 T334V mutant (unknown origin) expressed in HEK293-T-REx cells; type: ADME, cell-based
Sequence of Cytochrome P450 1B1 (Homo sapiens, UniProt Q16678, T334V) (Q16678 whole entry T334V): as the sequence (Q16678 whole entry S127C) above, with C127S, T334V counted along it

[5] = molecular target: Cytochrome P450 1B1 (Homo sapiens, UniProt Q16678, T510V); assay: Inhibition of CYP1B1 T510V mutant (unknown origin) expressed in HEK293-T-REx cells; type: ADME, cell-based
Sequence of Cytochrome P450 1B1 (Homo sapiens, UniProt Q16678, T510V) (Q16678 whole entry T510V): as the sequence (Q16678 whole entry S127C) above, with C127S, T510V counted along it

[6] = molecular target: T2, Cytochrome P450 1B1 (Homo sapiens, UniProt Q16678); assay: Inhibition of CYP1B1 (unknown origin) expressed in HEK293-T-REx cells co-expressing POR incubated for 1 hr by resorufin dye based plate reader analysis; type: ADME, cell-based
T2 sequence (Q16678 whole entry): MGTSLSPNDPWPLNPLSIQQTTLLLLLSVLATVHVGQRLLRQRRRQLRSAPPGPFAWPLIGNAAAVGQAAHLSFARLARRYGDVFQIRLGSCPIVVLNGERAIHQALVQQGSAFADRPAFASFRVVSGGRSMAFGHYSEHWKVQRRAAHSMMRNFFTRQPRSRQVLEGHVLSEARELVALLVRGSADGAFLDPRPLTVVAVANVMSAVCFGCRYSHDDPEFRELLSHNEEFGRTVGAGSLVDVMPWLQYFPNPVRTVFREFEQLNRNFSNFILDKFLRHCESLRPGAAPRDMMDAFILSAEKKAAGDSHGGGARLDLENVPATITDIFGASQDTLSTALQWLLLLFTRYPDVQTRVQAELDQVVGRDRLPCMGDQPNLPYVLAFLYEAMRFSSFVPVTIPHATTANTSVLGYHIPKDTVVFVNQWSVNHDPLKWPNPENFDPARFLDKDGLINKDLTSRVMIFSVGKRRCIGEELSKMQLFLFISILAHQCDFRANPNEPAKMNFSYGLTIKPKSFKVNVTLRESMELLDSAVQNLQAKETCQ

[7] = molecular target: T2, Cytochrome P450 1B1; assay: Binding affinity to N-terminal human microsomal CYP1B1 expressed in Escherichia coli assessed as spectral dissociation constant by absorbance based analysis
[8] = test system: CYP1A1 versus CYP1B1; assay: Selectivity index, ratio of IC50 for CYP1A1 (unknown origin) to IC50 for CYP1B1 (unknown origin); conditions: read-out: Ratio IC50
[9] = in vitro; conditions: human, liver
[10] = in vitro; conditions: rat, liver
[11] = in vitro; conditions: mouse, liver

Structure (SMILES): COc1ccc(OC)c2c1c(OC)cc1c(=O)cc(-c3cccc(F)c3)oc12
- pIC50 [1]: 7.92

Structure (SMILES): COc1cc(OC)cc(-c2cccc(-c3cc(OC)cc(OC)c3)c2)c1
- pIC50 [2]: 5.38

Structure (SMILES): COc1ccc(-c2nc(-c3ccc(F)cc3)cs2)c(OC)c1
- pIC50 [2]: 4.29

Structure (SMILES): COc1ccc(-c2nc(-c3cccnc3)cs2)c(OC)c1
- pIC50 [2]: 4.57

Structure (SMILES): COc1cc(OC)cc(-c2cncc(-c3cc(OC)cc(OC)c3)c2)c1
- pIC50 [2]: 6.74

Structure (SMILES): COc1ccc(-c2csc(-c3ccc(OC)cc3OC)n2)cc1
- pIC50 [2]: < 4.00

Structure (SMILES): COc1ccc(/C=C/c2ccncc2)c(OC)c1
- pIC50 [1]: 5.34

Structure (SMILES): COc1ccc(-c2cccc(-c3ccc(OC)cc3OC)c2)c(OC)c1
- pIC50 [2]: 5.79

Structure (SMILES): COc1cc(/C=C/c2ccc(OC)cc2OC)cc(OC)c1
- pIC50 [2]: 5.89
- inhibition (INH) [3]: Active
- inhibition (INH) [4]: Not Active
- inhibition (INH) [5]: Not Active

Structure (SMILES): COc1cc(OC)cc(-c2csc(-c3cc(OC)cc(OC)c3)n2)c1
- IC50 at 72 h [2]: 10 µM

Structure (SMILES): COc1cc(OC)cc(-c2ccnc(-c3cc(OC)cc(OC)c3)n2)c1
- IC50 at 72 h [2]: 10 µM

Structure (SMILES): COc1ccc(-c2csc(-c3ccc(OC)cc3OC)n2)c(OC)c1
- pIC50 [2]: ~4.00

Structure (SMILES): COc1ccc(-c2nc(-c3ccc(O)cc3)cs2)c(OC)c1
- pIC50 [6]: 6.22
- pIC50 [2]: 5.47
- pKd [7]: 6.46

Structure (SMILES): C#C[C@]1(O)CC[C@H]2[C@@H]3CCc4cc(O)c(-c5ccc(OC)cc5)cc4[C@H]3CC[C@@]21C
- pIC50 [6]: 6.43
- pIC50 [1]: 5.04
- selectivity ratio [8]: 25

Structure (SMILES): COc1ccc(-c2nc(-c3ccc(C#N)cc3)cs2)c(OC)c1
- pIC50 [2]: < 4.00
- inhibition (INH) [4]: Not Active
- inhibition (INH) [5]: Not Active

Structure (SMILES): COc1cc(OC)cc(-c2ccc(-c3cc(OC)cc(OC)c3)s2)c1
- pIC50 [2]: < 5.00

Structure (SMILES): COc1cc(OC)cc(-c2cc(-c3cc(OC)cc(OC)c3)ncn2)c1
- pIC50 [2]: 5.00

Structure (SMILES): O=C(O)Cc1ccccc1Nc1c(Cl)cccc1Cl [DICLOFENAC]
- CLint scaled at 100 µM [9]: 324 mL/min/kg
- CLint scaled at 100 µM [10]: 142 mL/min/kg
- CLint scaled at 100 µM [11]: 178 mL/min/kg

Structure (SMILES): O=c1cc(-c2ccccc2)oc2c1ccc1ccccc12 [ALPHA-NAPHTHOFLAVONE]
- pIC50 [2]: 4.83
- inhibition (INH) [3]: Active
- inhibition (INH) [4]: Not Active
- inhibition (INH) [5]: Active
